Data as given in publication PMC6599972, “Inhibition of host NOX1 blocks tumor growth and enhances checkpoint inhibitor–based immunotherapy” (Life Science Alliance, 2019).

Tests used:
[1] = target: T1, NOX4 (Homo sapiens, UniProt Q9NPH5); assay: Amplex Red/HRP ROS production assay on membranes of NOX4-overexpressing cells, concentration-response; type: biochemical
T1 construct: membranes prepared from cells specifically overexpressing the human NOX isoform
T1 sequence (Q9NPH5 1-578): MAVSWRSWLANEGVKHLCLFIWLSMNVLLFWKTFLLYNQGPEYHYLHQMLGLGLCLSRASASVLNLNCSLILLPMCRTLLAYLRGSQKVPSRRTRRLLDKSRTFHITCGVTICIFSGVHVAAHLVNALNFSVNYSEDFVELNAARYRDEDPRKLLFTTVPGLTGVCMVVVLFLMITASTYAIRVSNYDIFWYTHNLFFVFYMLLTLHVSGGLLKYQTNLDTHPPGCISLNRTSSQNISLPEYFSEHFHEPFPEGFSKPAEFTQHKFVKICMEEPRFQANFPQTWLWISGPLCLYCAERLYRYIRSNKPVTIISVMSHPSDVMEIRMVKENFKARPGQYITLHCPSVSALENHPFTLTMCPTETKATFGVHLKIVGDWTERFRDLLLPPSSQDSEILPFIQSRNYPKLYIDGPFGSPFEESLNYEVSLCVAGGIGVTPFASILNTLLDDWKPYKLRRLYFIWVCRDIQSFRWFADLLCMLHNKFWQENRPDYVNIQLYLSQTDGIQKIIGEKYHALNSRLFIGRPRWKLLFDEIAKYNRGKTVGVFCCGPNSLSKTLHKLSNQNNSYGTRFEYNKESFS

[2] = target: T2, NOX1 (Homo sapiens, UniProt Q9Y5S8); assay: Amplex Red/HRP ROS production assay on membranes of NOX1-overexpressing cells, concentration-response; type: biochemical
T2 construct: membranes prepared from cells specifically overexpressing the human NOX isoform
T2 sequence (Q9Y5S8 1-564): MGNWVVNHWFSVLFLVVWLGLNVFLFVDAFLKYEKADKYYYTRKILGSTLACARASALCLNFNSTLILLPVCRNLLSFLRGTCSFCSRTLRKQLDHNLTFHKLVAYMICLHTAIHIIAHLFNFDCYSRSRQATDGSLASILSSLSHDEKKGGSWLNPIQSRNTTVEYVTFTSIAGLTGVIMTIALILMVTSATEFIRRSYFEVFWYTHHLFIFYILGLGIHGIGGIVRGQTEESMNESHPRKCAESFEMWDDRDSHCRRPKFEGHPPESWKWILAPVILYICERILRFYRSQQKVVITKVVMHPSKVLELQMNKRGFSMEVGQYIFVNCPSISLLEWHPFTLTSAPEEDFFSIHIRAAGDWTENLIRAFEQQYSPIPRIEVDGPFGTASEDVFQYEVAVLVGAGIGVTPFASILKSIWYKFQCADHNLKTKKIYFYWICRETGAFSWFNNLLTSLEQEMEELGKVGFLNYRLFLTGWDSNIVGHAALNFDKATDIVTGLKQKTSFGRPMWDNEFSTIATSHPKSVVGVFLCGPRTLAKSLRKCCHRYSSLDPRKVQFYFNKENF

Ki [1]: 4000 nM
Ki [2]: 60 ± 6 nM
Substance: GKT771
